From article PMC9927415, “Tyrosine Kinase Inhibitors Display Potent Activity against Cryptosporidium parvum” (Microbiology Spectrum, 2022)

What was measured:
Test in all cases: KINOMEscan competitive binding, whole panel
[1] = target: T1, panel of 203 kinases (Homo sapiens, UniProt Q8IWQ3); settings: 10 µM, n=1; kinase BRSK2; read-out: Percent inhibition BRSK2
T1 construct: purchased DiscoverX (KINOMEscan)
T1 sequence (Q8IWQ3 1-736): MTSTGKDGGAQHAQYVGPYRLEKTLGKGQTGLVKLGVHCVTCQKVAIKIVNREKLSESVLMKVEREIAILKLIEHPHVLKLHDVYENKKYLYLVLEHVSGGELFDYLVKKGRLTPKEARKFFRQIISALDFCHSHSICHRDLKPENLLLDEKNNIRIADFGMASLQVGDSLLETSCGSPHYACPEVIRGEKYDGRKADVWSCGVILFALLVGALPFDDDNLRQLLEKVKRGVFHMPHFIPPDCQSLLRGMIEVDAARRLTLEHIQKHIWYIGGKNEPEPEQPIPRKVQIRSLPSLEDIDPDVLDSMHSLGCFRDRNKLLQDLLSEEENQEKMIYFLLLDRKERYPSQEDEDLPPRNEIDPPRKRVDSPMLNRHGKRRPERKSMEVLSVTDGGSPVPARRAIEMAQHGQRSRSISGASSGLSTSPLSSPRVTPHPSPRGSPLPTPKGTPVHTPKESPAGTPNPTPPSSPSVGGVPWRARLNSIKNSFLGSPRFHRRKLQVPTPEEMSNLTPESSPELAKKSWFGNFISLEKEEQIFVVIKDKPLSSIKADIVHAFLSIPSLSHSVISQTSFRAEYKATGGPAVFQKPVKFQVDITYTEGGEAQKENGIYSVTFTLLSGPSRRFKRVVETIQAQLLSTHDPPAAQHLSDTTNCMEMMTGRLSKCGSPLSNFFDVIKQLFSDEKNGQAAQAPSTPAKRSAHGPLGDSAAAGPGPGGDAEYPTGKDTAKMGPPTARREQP
How it was run: (§1)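 Percentage inhibition reflects loss of kinase binding to solid-phase ATP-site probe ligands in the presence of compound. Kinases carry a T7 bacteriophage fusion.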

[2] = target: T2, panel of 203 kinases (Homo sapiens, UniProt Q9HBH9); settings: 10 µM, n=1; kinase MKNK2; read-out: Percent inhibition MKNK2
T2 construct: purchased DiscoverX (KINOMEscan)
T2 sequence (Q9HBH9 whole entry): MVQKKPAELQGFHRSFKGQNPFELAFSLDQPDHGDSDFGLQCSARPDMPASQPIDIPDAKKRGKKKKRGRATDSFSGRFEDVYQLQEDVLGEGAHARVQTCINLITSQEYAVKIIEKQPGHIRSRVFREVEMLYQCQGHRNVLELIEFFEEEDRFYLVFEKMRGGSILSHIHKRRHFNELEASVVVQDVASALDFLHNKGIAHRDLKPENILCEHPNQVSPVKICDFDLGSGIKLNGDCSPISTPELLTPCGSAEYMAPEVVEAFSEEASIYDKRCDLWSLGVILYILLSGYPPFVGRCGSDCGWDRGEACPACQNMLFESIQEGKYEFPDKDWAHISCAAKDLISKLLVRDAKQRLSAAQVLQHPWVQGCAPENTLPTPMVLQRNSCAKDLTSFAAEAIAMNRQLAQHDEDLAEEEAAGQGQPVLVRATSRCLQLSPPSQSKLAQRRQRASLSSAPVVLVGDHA
How it was run: as §1

[3] = target: T3, panel of 203 kinases (Homo sapiens, UniProt P36894); settings: 10 µM, n=1; kinase BMPR1A; read-out: Percent inhibition BMPR1A
T3 construct: purchased DiscoverX (KINOMEscan)
T3 sequence (P36894 24-532): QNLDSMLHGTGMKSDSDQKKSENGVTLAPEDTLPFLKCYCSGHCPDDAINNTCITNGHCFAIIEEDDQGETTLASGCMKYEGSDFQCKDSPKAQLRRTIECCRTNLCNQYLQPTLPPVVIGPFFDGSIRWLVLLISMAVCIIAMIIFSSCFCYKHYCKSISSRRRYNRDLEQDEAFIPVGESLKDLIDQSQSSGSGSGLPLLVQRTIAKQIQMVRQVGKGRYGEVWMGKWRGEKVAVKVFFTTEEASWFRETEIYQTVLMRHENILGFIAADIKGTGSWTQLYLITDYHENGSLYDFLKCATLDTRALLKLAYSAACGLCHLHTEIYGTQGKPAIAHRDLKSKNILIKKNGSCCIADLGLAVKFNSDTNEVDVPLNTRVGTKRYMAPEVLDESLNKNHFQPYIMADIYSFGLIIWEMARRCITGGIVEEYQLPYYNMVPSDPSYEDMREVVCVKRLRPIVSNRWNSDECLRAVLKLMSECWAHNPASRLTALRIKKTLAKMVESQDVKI
How it was run: as §1

[4] = target: T4, panel of 203 kinases (Homo sapiens, UniProt P54762); settings: 10 µM, n=1; kinase EPHB1; read-out: Percent inhibition EPHB1
T4 construct: purchased DiscoverX (KINOMEscan)
T4 sequence (P54762 18-984): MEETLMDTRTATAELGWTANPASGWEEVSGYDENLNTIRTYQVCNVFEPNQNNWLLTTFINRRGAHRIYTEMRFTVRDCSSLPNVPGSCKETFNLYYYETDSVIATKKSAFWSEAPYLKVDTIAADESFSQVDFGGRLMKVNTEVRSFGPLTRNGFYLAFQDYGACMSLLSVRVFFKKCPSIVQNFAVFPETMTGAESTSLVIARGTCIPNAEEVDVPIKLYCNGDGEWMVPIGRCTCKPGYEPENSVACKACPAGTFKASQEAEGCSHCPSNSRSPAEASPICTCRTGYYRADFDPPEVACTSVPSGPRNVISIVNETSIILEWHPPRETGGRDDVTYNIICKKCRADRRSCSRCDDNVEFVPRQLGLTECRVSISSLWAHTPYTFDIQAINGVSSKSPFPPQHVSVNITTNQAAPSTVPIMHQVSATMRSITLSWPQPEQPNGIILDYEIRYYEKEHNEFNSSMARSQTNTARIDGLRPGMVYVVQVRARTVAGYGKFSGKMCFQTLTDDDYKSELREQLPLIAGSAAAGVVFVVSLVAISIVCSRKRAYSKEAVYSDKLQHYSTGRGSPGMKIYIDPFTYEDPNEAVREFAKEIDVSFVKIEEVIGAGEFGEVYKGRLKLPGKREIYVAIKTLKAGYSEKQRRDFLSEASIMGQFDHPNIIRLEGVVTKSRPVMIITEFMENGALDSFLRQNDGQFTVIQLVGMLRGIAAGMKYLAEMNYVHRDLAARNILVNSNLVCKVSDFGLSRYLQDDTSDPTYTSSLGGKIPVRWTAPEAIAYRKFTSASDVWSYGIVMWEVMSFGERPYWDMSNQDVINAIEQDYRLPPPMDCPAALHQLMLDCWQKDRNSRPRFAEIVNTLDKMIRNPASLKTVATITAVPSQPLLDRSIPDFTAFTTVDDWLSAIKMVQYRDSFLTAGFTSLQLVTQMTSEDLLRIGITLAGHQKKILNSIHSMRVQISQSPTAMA
How it was run: as §1

[5] = target: T5, panel of 203 kinases (Homo sapiens, UniProt Q5VT25); settings: 10 µM, n=1; kinase MRCKA; read-out: Percent inhibition MRCKA
T5 construct: purchased DiscoverX (KINOMEscan)
T5 sequence (Q5VT25 whole entry): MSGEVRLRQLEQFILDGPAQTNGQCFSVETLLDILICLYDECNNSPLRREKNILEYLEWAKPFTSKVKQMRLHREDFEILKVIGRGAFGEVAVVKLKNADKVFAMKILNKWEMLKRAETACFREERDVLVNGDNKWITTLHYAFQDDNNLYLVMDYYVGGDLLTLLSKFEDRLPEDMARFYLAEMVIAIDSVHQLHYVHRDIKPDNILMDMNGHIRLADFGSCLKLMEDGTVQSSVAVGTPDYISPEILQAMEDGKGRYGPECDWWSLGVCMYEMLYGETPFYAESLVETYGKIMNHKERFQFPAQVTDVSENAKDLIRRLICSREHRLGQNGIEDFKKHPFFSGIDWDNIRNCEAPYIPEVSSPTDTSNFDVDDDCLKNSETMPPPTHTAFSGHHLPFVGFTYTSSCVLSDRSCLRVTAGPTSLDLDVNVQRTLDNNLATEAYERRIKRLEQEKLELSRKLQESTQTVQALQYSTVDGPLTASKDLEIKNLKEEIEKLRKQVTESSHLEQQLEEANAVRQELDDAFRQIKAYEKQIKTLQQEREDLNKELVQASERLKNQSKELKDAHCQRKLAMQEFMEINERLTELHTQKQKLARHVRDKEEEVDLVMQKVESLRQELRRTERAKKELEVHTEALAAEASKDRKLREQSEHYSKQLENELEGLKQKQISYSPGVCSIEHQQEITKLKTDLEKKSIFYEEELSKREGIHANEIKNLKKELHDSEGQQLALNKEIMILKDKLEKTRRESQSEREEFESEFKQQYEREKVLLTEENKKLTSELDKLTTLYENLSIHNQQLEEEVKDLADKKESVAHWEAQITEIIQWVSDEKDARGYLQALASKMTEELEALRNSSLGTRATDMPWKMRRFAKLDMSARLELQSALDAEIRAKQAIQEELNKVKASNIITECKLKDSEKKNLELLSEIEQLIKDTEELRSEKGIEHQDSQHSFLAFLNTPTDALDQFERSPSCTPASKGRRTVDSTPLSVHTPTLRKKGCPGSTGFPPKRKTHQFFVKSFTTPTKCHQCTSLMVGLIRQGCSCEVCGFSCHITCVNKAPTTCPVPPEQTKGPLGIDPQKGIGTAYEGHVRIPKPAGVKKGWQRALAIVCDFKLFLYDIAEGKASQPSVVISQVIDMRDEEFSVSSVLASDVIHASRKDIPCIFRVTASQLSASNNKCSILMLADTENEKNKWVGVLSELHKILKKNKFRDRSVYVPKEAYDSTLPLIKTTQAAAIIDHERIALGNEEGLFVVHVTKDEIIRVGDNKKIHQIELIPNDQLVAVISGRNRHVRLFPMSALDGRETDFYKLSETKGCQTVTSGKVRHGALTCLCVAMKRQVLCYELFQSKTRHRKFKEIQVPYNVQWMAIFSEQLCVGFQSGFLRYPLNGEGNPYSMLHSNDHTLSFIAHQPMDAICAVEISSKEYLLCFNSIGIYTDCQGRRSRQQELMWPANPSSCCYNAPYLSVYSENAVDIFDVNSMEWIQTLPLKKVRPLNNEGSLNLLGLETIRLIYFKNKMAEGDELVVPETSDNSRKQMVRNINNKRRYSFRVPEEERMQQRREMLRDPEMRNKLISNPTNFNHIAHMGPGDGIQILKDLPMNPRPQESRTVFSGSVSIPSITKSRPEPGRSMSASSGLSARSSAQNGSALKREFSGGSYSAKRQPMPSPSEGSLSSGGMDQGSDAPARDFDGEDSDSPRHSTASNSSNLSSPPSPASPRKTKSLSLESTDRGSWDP
How it was run: as §1

[6] = target: T6, panel of 203 kinases (Homo sapiens, UniProt Q9Y2H1); settings: 10 µM, n=1; kinase NDR2; read-out: Percent inhibition NDR2
T6 construct: purchased DiscoverX (KINOMEscan)
T6 sequence (Q9Y2H1 whole entry): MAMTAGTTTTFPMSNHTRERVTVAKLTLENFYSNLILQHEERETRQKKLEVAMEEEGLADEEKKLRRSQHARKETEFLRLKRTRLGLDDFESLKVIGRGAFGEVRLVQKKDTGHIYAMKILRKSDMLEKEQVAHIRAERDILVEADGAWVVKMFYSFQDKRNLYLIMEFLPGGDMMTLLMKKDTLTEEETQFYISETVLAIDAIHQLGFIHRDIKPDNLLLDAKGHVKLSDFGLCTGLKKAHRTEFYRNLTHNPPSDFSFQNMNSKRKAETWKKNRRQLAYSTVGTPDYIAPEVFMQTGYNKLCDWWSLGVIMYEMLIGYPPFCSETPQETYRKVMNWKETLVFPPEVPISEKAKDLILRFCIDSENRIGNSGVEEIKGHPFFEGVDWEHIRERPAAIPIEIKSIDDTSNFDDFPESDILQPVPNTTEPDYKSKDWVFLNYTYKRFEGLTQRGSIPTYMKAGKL
How it was run: as §1

[7] = target: T7, panel of 203 kinases (Homo sapiens, UniProt P28482); settings: 10 µM, n=1; kinase ERK2; read-out: Percent inhibition ERK2
T7 construct: purchased DiscoverX (KINOMEscan)
T7 sequence (P28482 whole entry): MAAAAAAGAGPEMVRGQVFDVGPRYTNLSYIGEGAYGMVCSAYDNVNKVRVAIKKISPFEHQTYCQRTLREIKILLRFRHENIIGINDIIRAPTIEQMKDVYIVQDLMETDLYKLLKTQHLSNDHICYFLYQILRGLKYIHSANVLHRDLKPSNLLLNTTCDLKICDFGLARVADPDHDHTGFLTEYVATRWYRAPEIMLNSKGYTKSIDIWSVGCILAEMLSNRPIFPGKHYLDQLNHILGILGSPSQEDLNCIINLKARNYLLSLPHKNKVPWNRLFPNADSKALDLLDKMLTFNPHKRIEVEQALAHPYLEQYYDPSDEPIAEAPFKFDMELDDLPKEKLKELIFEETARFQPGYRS
How it was run: as §1

[8] = target: T8, panel of 203 kinases (Homo sapiens, UniProt Q9UQB9); settings: 10 µM, n=1; kinase AURKC; read-out: Percent inhibition AURKC
T8 construct: purchased DiscoverX (KINOMEscan)
T8 sequence (Q9UQB9 1-309): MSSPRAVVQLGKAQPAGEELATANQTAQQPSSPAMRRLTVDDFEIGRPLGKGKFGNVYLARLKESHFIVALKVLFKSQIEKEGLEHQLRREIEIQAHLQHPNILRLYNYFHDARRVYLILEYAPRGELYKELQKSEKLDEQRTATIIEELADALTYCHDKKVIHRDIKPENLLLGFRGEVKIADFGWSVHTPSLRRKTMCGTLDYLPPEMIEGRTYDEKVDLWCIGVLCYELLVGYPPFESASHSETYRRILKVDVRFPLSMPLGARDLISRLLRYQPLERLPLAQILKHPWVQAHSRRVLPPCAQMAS
How it was run: as §1

[9] = target: T9, panel of 203 kinases (Homo sapiens, UniProt Q96NX5); settings: 10 µM, n=1; kinase CAMK1G; read-out: Percent inhibition CAMK1G
T9 construct: purchased DiscoverX (KINOMEscan)
T9 sequence (Q96NX5 whole entry): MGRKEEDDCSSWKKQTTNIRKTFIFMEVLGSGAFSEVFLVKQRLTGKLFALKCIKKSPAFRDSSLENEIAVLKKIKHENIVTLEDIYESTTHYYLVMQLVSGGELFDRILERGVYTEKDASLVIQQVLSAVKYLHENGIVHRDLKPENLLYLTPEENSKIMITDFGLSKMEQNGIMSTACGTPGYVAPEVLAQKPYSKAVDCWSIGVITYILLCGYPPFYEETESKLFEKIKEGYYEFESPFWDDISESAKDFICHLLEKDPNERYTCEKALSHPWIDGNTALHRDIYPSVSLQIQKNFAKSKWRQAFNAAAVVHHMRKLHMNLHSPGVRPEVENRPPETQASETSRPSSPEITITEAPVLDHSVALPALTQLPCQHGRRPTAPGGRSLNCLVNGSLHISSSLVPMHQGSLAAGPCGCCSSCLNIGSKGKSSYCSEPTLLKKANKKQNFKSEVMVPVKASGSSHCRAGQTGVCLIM
How it was run: as §1

SMILES | inhibition at 10 µM [1] [%] | inhibition at 10 µM [2] [%] | inhibition at 10 µM [3] [%] | inhibition at 10 µM [4] [%] | inhibition at 10 µM [5] [%] | inhibition at 10 µM [6] [%] | inhibition at 10 µM [7] [%] | inhibition at 10 µM [8] [%] | inhibition at 10 µM [9] [%]
CN1CCN(c2ccc(Nc3nccc(-c4cnn5ncccc45)n3)cc2C#N)CC1 [Compound 1] | 0 | 97 | 0 | 99.3 | 0 | 0 | 100 | 96.5 | 90.5
COc1ccc(Nc2nccc(-c3cnn4ncccc34)n2)cc1 [Compound 2] | 0 | 99.4 | 0 | 99.8 | 0 | 91.7 | 99.2 | 91.1 | 71.5
Cc1ccc(O)cc1Nc1ccnc(Nc2cccc(C(N)=O)c2)n1 [Compound 3] | 0 | 83.9 | 99.2 | 100 | 0 | 0 | 0 | 0 | 0
Cc1ccc(O)cc1N(C)c1ccnc(Nc2cccc(S(N)(=O)=O)c2)n1 [Compound 4] | 0 | 99.3 | 97 | 100 | 87 | 69.4 | 64 | 0 | 0
Fc1cccc(COc2ccc(Nc3ncnc4c3CN(CCN3CCOCC3)CC4)cc2Cl)c1 [Compound 6] | 0 | 0 | 0 | 0 | 0 | 0 | 0 | 0 | 0
COc1cc(Nc2nccc(-c3sc(N)nc3-c3cccc(NC(=O)c4c(F)cccc4F)c3)n2)cc(OC)c1OC [Compound 7] | 0 | 100 | 0 | 100 | 100 | 100 | 100 | 85.7 | 69.4
C[C@@H](Oc1cc(-c2cnc3ccccn23)sc1C(N)=O)c1ccccc1Cl [Compound 8] | 91.2 | 0 | 0 | 0 | 0 | 0 | 80.6 | 96 | 0
c1ccc(COc2cccc(-c3ccnc4[nH]ccc34)c2)cc1 [Compound 9] | 0 | 0 | 0 | 0 | 0 | 0 | 0 | 0 | 0
Clc1ccc(Nc2ncc(-c3ccccc3)s2)cc1 [Compound 10] | 0 | 65.7 | 0 | 0 | 0 | 0 | 0 | 0 | 0
Nc1ncc2c(-c3ccncc3)c[nH]c2n1 [Compound 11] | 0 | 97.3 | 0 | 81.9 | 0 | 0 | 0 | 0 | 0
